The values that follow come from patent publication US20230271949A1, “GLP-1R MODULATING COMPOUNDS” (ASCLETIS BIOSCIENCE CO., LTD., priority 2022, published 2023).

The target of the assay is GLP-1R (Homo sapiens, UniProt P43220). The assay can be described thus: GLP-1R agonist cAMP stimulation assay (HTRF cAMP). To be noted: HEK293 cell line expressing GLP-1 target; HTRF cAMP agonist mode, 30 min at RT. Type of assay: cell-based. In a few lines:
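GLP-1R-expressing cells were stimulated with 10-point, 3-fold compound dilutions for 30 min at RT; HTRF cAMP detection reagents were then added for 60 min and the 665/615 ratio read. Ratios were converted to cAMP via a standard curve and % activity scaled between DMSO and top-concentration GLP-1(7-37) reference wells.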
For orientation: Time-resolved FRET reads energy transfer from a long-lived donor to a nearby acceptor.

Chain of GLP-1R (P43220 24-463): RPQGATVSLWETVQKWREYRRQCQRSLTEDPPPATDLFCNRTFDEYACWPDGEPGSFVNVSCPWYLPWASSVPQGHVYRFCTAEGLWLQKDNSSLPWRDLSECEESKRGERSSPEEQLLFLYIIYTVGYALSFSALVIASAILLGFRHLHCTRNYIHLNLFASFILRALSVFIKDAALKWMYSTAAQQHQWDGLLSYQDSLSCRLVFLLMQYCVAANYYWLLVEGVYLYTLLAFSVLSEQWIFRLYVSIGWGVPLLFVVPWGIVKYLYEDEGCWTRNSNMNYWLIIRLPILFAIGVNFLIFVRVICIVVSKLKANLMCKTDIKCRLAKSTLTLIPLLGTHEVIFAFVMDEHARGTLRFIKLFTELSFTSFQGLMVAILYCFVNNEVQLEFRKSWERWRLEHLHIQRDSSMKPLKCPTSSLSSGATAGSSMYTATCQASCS

One may read the EC50 as the concentration at which the effect is half-maximal. On to `Cc1n[nH]c2c(C(F)(F)F)cc(NC(=O)c3ccc4c(c3)nc(CN3CCC(c5cccc(OCc6ccc(Cl)cc6F)n5)CC3)n4C[C@@H]3CCO3)cc12` [Compound 106], for which the EC50 was found to be 2.31 nM.
The compound `O=C(Nc1ccc2nc(CN3CC=C(c4cccc(OCc5ccc(Cl)cc5F)n4)CC3)n(C[C@@H]3CCO3)c2c1)c1cc(C(F)(F)F)c2c(c1)C1(CC1)C(=O)N2` [Compound 288] gave an EC50 of 3.87 nM.
The compound `Cc1cc(NC(=O)c2ccc3c(c2)nc(CN2CCC(c4cccc(OCc5ccc(Cl)cc5F)n4)CC2)n3C[C@@H]2CCO2)c(C)c2c(C)n[nH]c12` [Compound 120] gave an EC50 of 15.3 nM.
Consider `COC(=O)[C@@H]1CC(F)(F)CN1C(=O)[C@H](C)NC(=O)c1ccc2c(c1)nc(CN1CCC(c3cccc(OCc4ccc(Cl)cc4F)n3)CC1)n2C[C@@H]1CCO1` [Compound 68], for which the EC50 stood at 142 nM.
In turn, `Cc1cc(NC(=O)c2ccc3c(c2)nc(CN2CC=C(c4cccc5c4OC(C)(c4ccc(Cl)cc4F)O5)CC2)n3CC2CCO2)cc2c(C(F)(F)F)n[nH]c12` (stereo not drawn) [Compound 296] returned an EC50 of 1.92 nM.
For the compound `Cc1n[nH]c2c(F)cc(C(=O)Nc3ccc4c(c3)nc(CN3CCC(c5cccc(OCc6cc(F)c(C#N)s6)n5)CC3)n4C[C@@H]3CCO3)cc12` [Compound 374], the EC50 was found to be 0.55 nM.
Take `COCCn1c(CN2CCC(c3cccc(OCc4ccc(Cl)cc4F)n3)CC2)nc2cc(C(=O)NCc3ccc(O)c(OC)c3)ccc21` [Compound 28]: the EC50 was determined as 75.7 nM.
With `Cc1n[nH]c2c(C(F)(F)F)cc(C(=O)Nc3ccc4c(c3)nc(CN3CC=C(c5cccc(OCc6ccc(Cl)cc6F)n5)CC3)n4C[C@@H]3CCO3)cc12` [Compound 210] the figure was 0.39 nM.
Compound `Cc1nn(C)c2ccc(NC(=O)c3ccc4c(c3)nc(CN3CC=C(c5cccc(OCc6ccc(Cl)cc6F)n5)CC3)n4C[C@@H]3CCO3)cc12` [Compound 159] had an EC50 of 9.74 nM.
Under `COCCn1c(CN2CCC(c3cccc(OCc4ccc(Cl)cc4F)n3)CC2)nc2cc(C(=O)NCCCc3ccc(O)cc3)ccc21` [Compound 25] stands 756 nM; under `Cc1cc(C(=O)Nc2ccc3c(c2)nc(CN2CC=C(c4cccc(OCc5ccc(C#N)cc5F)n4)CC2)n3C[C@@H]2CCO2)cc2c(C(F)F)n[nH]c12` [Compound 228], 1.26 nM; under `Cc1n[nH]c2cnc(C(=O)Nc3ccc4c(c3)nc(CN3CC=C(c5cccc(OCc6ccc(Cl)cc6F)n5)CC3)n4C[C@@H]3CCO3)cc12` [Compound 237], 8.71 nM.
In turn, `O=C(Nc1cc(C(F)(F)F)c2[nH]ncc2c1)c1ccc2c(c1)nc(CN1CCC(c3cccc(OCc4ccc(Cl)cc4F)n3)CC1)n2C[C@@H]1CCO1` [Compound 108] showed an EC50 of 2.39 nM.
`Cc1n[nH]c2c(C(F)(F)F)cc(NC(=O)c3ccc4c(c3)nc(CN3CCC(c5cccc6c5OC(C)(c5ccc(Cl)cc5F)O6)CC3)n4CC3CCO3)cc12` (stereo not drawn) [Compound 331] had an EC50 of 1.27 nM.
With `COCCn1c(Cc2ccc(-c3cccc(OCc4ccc(C#N)cc4F)n3)cc2)nc2cc(C(=O)NCCc3ccc(N)cc3)ccc21` [Compound 9] the figure was 2980 nM; with `COCCn1c(Cc2ccc(-c3cccc(OCc4ccc(C#N)cc4F)n3)cc2)nc2cc(C(=O)NCCc3ccc(O)cc3)ccc21` [Compound 1, 2-(4-(6-((4-cyano-2-fluorobenzyl)oxy)pyridin-2-yl)benzyl)-N-(4-hydroxyphenethyl)-1-(2-methoxyethyl)-1H-benzo[d]imidazole-5-carboxamide], 4150 nM; with `Cc1n[nH]c2ncc(NC(=O)c3ccc4c(c3)nc(CN3CCC(c5cccc(OCc6ccc(Cl)cc6F)n5)CC3)n4C[C@@H]3CCO3)cc12` [Compound 79], 76.5 nM.
Under `CCc1n[nH]c2ccc(C(=O)Nc3ccc4c(c3)nc(CN3CCC(c5cccc6c5OC(C)(c5ccc(C#N)cc5F)O6)CC3)n4CC3CCO3)cc12` (stereo not drawn) [Compound 346] stands 0.76 nM.
`Cc1n[nH]c2ccc(NC(=O)c3ccc4c(n3)nc(CN3CC=C(c5cccc(OCc6ccc(Cl)cc6F)n5)CC3)n4C[C@@H]3CCO3)cc12` [Compound 136] yielded an EC50 of 2.19 nM.
For `Cc1cc(NC(=O)c2ccc3c(c2)nc(CN2CCC(c4cccc5c4OC(C)(c4ccc(Cl)cc4F)O5)CC2)n3C[C@@H]2CCO2)cc2[nH]c(=O)[nH]c12` (stereo partly drawn) [Compound 339], the response was half-maximal at 0.39 nM (EC50). Against the preceding compound, the EC50 is about 5.6-fold lower.
With `COCCn1c(CN2CCC(c3cccc(OCc4ccc(Cl)cc4F)n3)CC2)nc2cc(C(=O)NCc3ccc(NC(C)=O)cc3)ccc21` [Compound 27] the figure was 129 nM.
`Cc1n[nH]c2ccc(C(=O)Nc3ccc4c(c3)nc(Cc3cc(F)c(-c5cccc6c5OC(C)(c5ccc(Cl)cc5F)O6)cc3F)n4CC3CCO3)cc12` (stereo not drawn) [Compound 318] had an EC50 of 1.53 nM.
With `O=C(NCC(=O)N1CC[C@H](O)C1)c1ccc2c(c1)nc(CN1CCC(c3cccc(OCc4ccc(Cl)cc4F)n3)CC1)n2C[C@@H]1CCO1` [Compound 70], the EC50 was found to be 1.9 nM.
Under `Cc1nc2cccc(COc3cccc(C4=CCN(Cc5nc6cc(C(=O)Nc7ccc8[nH]nc(C)c8c7)ccc6n5C[C@@H]5CCO5)CC4)n3)c2s1` [Compound 369] stands 2.91 nM; under `Cc1cc2c(C#N)ccc(COc3cccc(C4=CCN(Cc5nc6cc(NC(=O)c7ccc8[nH]nc(C(F)(F)F)c8c7)ccc6n5C[C@@H]5CCO5)CC4)n3)c2o1` [Compound 359], 1.62 nM; under `COCCn1c(CN2CCC(c3cccc(OCc4ccc(Cl)cc4F)n3)CC2)nc2cc(C(=O)NCc3ccc(O)c(F)c3)ccc21` [Compound 31], 37.2 nM.
In turn, `O=C(Nc1nc2[nH]cnc2s1)c1ccc2c(c1)nc(CN1CC=C(c3cccc(OCc4ccc(Cl)cc4F)n3)CC1)n2C[C@@H]1CCO1` [Compound 403] returned an EC50 of 23.2 nM. Against the preceding compound, the EC50 is about 1.6-fold lower.
As to `Cc1n[nH]c2c(F)cc(NC(=O)c3ccc4c(c3)nc(CN3CC=C(c5cccc6c5O[C@@](C)(c5ccc(C#N)cc5F)O6)CC3)n4CC3CCO3)cc12` (stereo partly drawn) [Compound 298], the midpoint of the response, the EC50, lay at 0.37 nM. This EC50 lies about 63-fold lower than the previous one.
As to `O=C(NCc1ccc(O)cc1)c1ccc2c(c1)nc(CN1CCC(c3cccc(OCc4ccc(Cl)cc4F)n3)CC1)n2C[C@@H]1CCO1` [Compound 24], the EC50 stood at 90.1 nM.
`Cc1n[nH]c2c(C)cc(NC(=O)c3ccc4c(c3)nc(CN3CC=C(c5cccc6c5OC(C)(c5ccc(C#N)cc5F)O6)CC3)n4CC3CCO3)cc12` (stereo not drawn) [Compound 299]: the EC50 was 0.16 nM.
`N#Cc1ccc(COc2cccc(C3=CCN(Cc4nc5cc(C(=O)Nc6cc(F)c7c(c6)C6(CC6)C(=O)N7)ccc5n4C[C@@H]4CCO4)CC3)n2)c(F)c1` [Compound 179]: the EC50 was 0.76 nM.
`Cc1n[nH]c2c(C3CC3)cc(NC(=O)c3ccc4c(c3)nc(CN3CCC(c5cccc(OCc6ccc(Cl)cc6F)n5)CC3)n4C[C@@H]3CCO3)cc12` [Compound 118] yielded an EC50 of 8.31 nM.
With `CCn1cncc1Cn1c(CN2CCC(c3cccc(OCc4ccc(Cl)cc4F)n3)CC2)nc2cc(NC(=O)c3cc(F)c4[nH]nc(C)c4c3)ccc21` [Compound 259] the figure was 0.91 nM; with `CC1(c2ccc(Cl)cc2F)Oc2cccc(C3=CCN(Cc4nc5cc(C(=O)Nc6ccc7[nH]nc(C8CC8)c7c6)ccc5n4CC4CCO4)CC3)c2O1` (stereo not drawn) [Compound 294], 1.02 nM; with `O=C(Nc1cc(C(F)(F)F)c2c(c1)C1(CC1)C(=O)N2)c1ccc2c(c1)nc(CN1CCC(c3cccc(OCc4ccc(Cl)cc4F)n3)CC1)n2C[C@@H]1CCO1` [Compound 107], 1.83 nM.
Regarding `Cc1n[nH]c2cnc(NC(=O)c3ccc4c(c3)nc(CN3CC=C(c5cccc(OCc6ccc(Cl)cc6F)n5)CC3)n4C[C@@H]3CCO3)nc12` [Compound 168], the EC50 amounted to 10.5 nM.
